Data reported in patent US10370351B2, “Photoinduced electron transfer voltage-sensitive compounds” (The Regents of the University of California, priority 2016, dated 2019).
Converted amounts (≈) assume the structure as drawn.

Key:
HEK293T cells [1] = experiment: Voltage sensitivity in HEK cells, whole-cell patch clamp with fluorescence imaging; type: cell-based; settings: for ΔF/F (%) voltage sensitivity: per 100 mV, HEK cells, whole-cell voltage clamp, 200 nM VF; for Improvement (%) in voltage sensitivity: relative to corresponding msVF
Description: Functional imaging of VF dyes was performed using a 20× objective paired with image capture from the EMCCD camera at a sampling rate of 0.5 kHz. VF dyes were excited using the 488 nm LED with an intensity of 2.5 W/cm^2. For initial voltage characterization emission was collected with the QUAD filter (430/32, 508/14, 586/30, 708/98 nm) after passing through a quadruple dichroic mirror (432/38, 509/22, 586/40, 654 nm LP).
Recordings were obtained with an Axopatch 200B amplifier (Molecular Devices) at room temperature. The signals were digitized with Digidata 1332A, sampled at 50 kHz and recorded with pCLAMP 10 software (Molecular Devices) on a PC. Fast capacitance was compensated in the on-cell configuration. For all electrophysiology experiments, recordings were only pursued if series resistance in voltage clamp was less than 30 MΩ. For whole-cell, voltage clamp recordings in HEK 293T cells, cells were held at −60 mV and 100 ms hyper- and depolarizing steps applied from −100 to +100 mV in 20 mV increments. For whole-cell, following membrane rupture, resting membrane potential was assessed and recorded at I=0 and monitored during the data acquisition.
Analysis of voltage sensitivity in HEK cells was performed using custom Matlab routines. Briefly, a region of interest (ROI) was selected automatically based on fluorescence intensity and applied as a mask to all image frames. Fluorescence intensity values were calculated at known baseline and voltage step epochs.
To determine the voltage sensitivity of each of the dyes, whole-cell patch clamp electrophysiology was performed on HEK293T cells loaded with 200 nM VF (FIG. 8a-d). Depolarization of the cell membrane in the presence of VF dye results in a large increase of fluorescence, while hyperpolarization results in lower levels of fluorescence (FIG. 8c-d; FIG. 9). As an illustrative comparison, msVF2.2(OMe). […] Cl, at 48% per 100 mV. The disulfoVF2.2(OMe).

[2] = Spectroscopic studies (absorbance, emission, quantum yield); type: physicochemical; settings: phosphate-buffered saline, pH 7.4 with 0.1% Triton X-100
Description: Stock solutions of VF dyes were prepared in DMSO (1.0-10 mM) and diluted with PBS (100 mM Na2HPO4, pH 7.4, 0.1% Triton-X). UV-Vis absorbance and fluorescence spectra were recorded using a Shimadzu 2501 Spectrophotometer (Shimadzu) and a Quantamaster Master 4 L-format scanning spectrofluorometer (Photon Technologies International). The fluorometer is equipped with an LPS-220B 75-W xenon lamp and power supply, A-1010B lamp housing with integrated igniter, switchable 814 photon-counting/analog photomultiplier detection unit, and MD5020 motor driver. Samples were measured in 1-cm path length quartz cuvettes (Starna Cells).

[3] = Solubility of VoltageFluor dyes and sulfofluoresceins in water; type: physicochemical; settings: for improvement of aqueous solubility by second sulfonate: ds vs ms VF dye, distilled water, 0.1% DMSO, 20 degrees Celsius, UV-Vis; for solubility at 3 days: water, 20 °C, kinetic from dmso stock, H2O with 0.1% DMSO, read-out: aqueous solubility
Description: Suspensions of 5 milligrams each of solid mono- and disulfo-dichlorofluoresceins in 5 mL of distilled water were created. Over the course of three days, 5 milligrams of solid material was added at a time, ensuring that no visible particulates were present in the solution prior to addition. At the end of the experiment, the suspension was filtered through filter paper and then through a 0.22-μm polytetrafluoroethylene filter into a scintillation vial. 10 μL of this filtrate was used as a stock solution to determine the concentration of fluorescein present via UV-Vis spectrophotometry and the remainder was lyophilized and the amount of solid resulting was measured using an analytical microbalance. For VF dyes (VF2.1.Cl and VF2.2(OMe).Cl, both ms and ds versions), saturated solutions in distilled water were prepared via dilution from a 100 μM stock in DMSO for a resulting solution containing 0.1% DMSO. The solutions were allowed to sit overnight at 20 degrees Celsius and then filtered through 0.22-μm filters. The resulting filtrates were used as stock solutions to determine the amount of VF present via UV-Vis spectrophotometry.

HEK293T cells [4] = experiment: Membrane localization after bath loading, fluorescence imaging; type: cell-based; settings: HEK cells
Description: A total of 9 new dyes were made: 6 new dsVF dyes and 3 new msVF dyes. Both msVF and dsVF dyes display similar excitation and emission profiles to previously reported msVF dyes (Table 1, FIG. 7A-I), and all localized to the plasma membrane when applied to HEK293T cells via bath loading (FIG. 8a-b).

rat hippocampal neurons = experiment: Staining and voltage imaging of cultured rat hippocampal neurons; type: cell-based
Description: Cl, it was expected that disulfoVF2.2(OMe). Cl would be well-suited to observing membrane potential changes in neurons. Cultured rat hippocampal neurons bathed in disulfoVF2.2(OMe). […] Cl was also used to image neuronal activity in midbrain dopaminergic (mDA) neurons derived from cultured human pluripotent stem cells (hPSCs) in culture (FIG. 11b) using differentiation conditions adapted from previously established protocols. mDA neurons stained with dsVF2.2(OMe). […] Functional analysis of human- or patient-derived differentiated neurons in a simple, non-invasive manner enabled by dsVF2.2(OMe). Cl can provide an important diagnostic tool alongside more conventional methods in ascertaining proper differentiation as well as in investigating human disease phenotypes.

hPSC-derived mDA neurons = experiment: Voltage imaging of hPSC-derived midbrain dopaminergic (mDA) neurons; type: cell-based, human; settings: mDA neurons stained with 500 nM dye
Description: mDA neurons were derived from H1 human embryonic stem cells (hESCs) using medium conditions as described in Kriks et al., Nature, 480, 547, 2011). On Day 25 of differentiation, cells were harvested from the culture platform and pipetted to generate small 50-100 μm clusters, and seeded on 12 mm glass coverslips coated with 20 μg/ml Laminin (ThermoFischer Scientific). Cells were subsequently matured for 10 days before voltage sensitive imaging.
Functional imaging of mDA cells was performed using a 20× objective paired with image capture from the ORCA-Flash4.0 camera (Hamamatsu) at a sampling rate of 100 Hz. VoltageFluor dye was excited using the 488 nm LED with an intensity of 2.5 W/cm^2. Light was collected with the QUAD filter (430/32, 508/14, 586/30, 708/98 nm) after passing through a quadruple dichroic mirror (432/38, 509/22, 586/40, 654 nm LP). For image analysis, a custom Matlab routine was employed. Briefly, a TIFF stack was imported into Matlab and the intensity values a user-designated block of pixels was extracted as an array. The intensity over time for each block was then baseline corrected by fitting to a 2nd degree polynomial. […]

HEK cells = experiment: Determination of photostability in HEK cells; type: cell-based; settings: compared to msVF2.2(OMe).Cl; 1 μM, 488 nm LED
Description: HEK cells were incubated separately with ms- and ds-VF2.1.Cl and VF2.2(OMe). Cl at 1 μM in HBSS at 37 degrees Celsius for 15 minutes. Data were acquired with a W-Plan-Apo 63×/1.0 objective (Zeiss) and the ORCA-Flash4.0 camera (Hamamatsu). Images were exposed for 10 milliseconds each across 50 seconds with a constant illumination of the 488 nm LED (153 W/cm^2). The excitation light was collected with the QUAD filter (430/32, 508/14, 586/30, 708/98 nm) after passing through a quadruple dichroic mirror (432/38, 509/22, 586/40, 654 nm LP). The fluorescence curves were background subtracted and then normalized to the fluorescence intensity at t=0 and averaged across five cells of each dye.

Compound	ΔF/F (%) voltage sensitivity (HEK293T cells [1])	Improvement (%) in voltage sensitivity (HEK293T cells [1])	Φf1 (fluorescence quantum yield) [2]	λabs [2]	λem [2]	also measured
CN(C)c1ccc(/C=C/c2ccc(/C=C/c3cc(S(=O)(=O)O)c(-c4c5cc(Cl)c(=O)cc-5oc5cc(O)c(Cl)cc45)c(S(=O)(=O)O)c3)cc2)cc1 [dsVF2.1.Cl]	36%	21%	0.08	520 nm	539 nm	improvement of aqueous solubility by second sulfonate [3]: 22%
CN(C)c1ccc(/C=C/c2ccc(/C=C/c3cc(S(=O)(=O)O)c(-c4c5cc(F)c(=O)cc-5oc5cc(O)c(F)cc45)c(S(=O)(=O)O)c3)cc2)cc1 [dsVF2.1.F]	33%	25%	0.13	507 nm	529 nm	
CCN(CC)c1ccc(/C=C/c2ccc(/C=C/c3cc(S(=O)(=O)O)c(-c4c5cc(Cl)c(=O)cc-5oc5cc(O)c(Cl)cc45)c(S(=O)(=O)O)c3)cc2)c(OC)c1 [dsVF2.2(OMe).Cl]	63%	19%	0.07	520 nm	540 nm	ΔF/F (%) voltage sensitivity (HEK293T cells [1]; listed as disulfoVF2.2(OMe). Cl): 63%; ΔF/F (%) voltage sensitivity (HEK293T cells [1]; listed as disulfoVF2.2(OMe).Cl): 63%; ΔF/F (%) voltage sensitivity (HEK293T cells [1]; listed as dsVF2.2(OMe). Cl): approximately 63%; improvement of aqueous solubility by second sulfonate [3]: 55%; membrane localization (HEK293T cells [4]): clear membrane localization; membrane staining of neurons (rat hippocampal neurons; confocal microscopy, 500 nM): bright membrane staining; detection of membrane potential changes (rat hippocampal neurons; rat hippocampal neurons): can be used to detect membrane potential changes in rat hippocampal neurons; imaging of neuronal activity (hPSC-derived mDA neurons): revealed distinct firing patterns; photostability (HEK cells): good photostability
5-bromo-2′,7′-dichlorodisulfofluorescein [ds-dichlorofluorescein]						improvement of aqueous solubility ([3]; relative to monosulfo 5, spectroscopically or gravimetrically): 2.3 fold
CCN(CC)c1ccc(/C=C/c2ccc(/C=C/c3cc(S(=O)(=O)O)c(-c4c5cc(F)c(=O)cc-5oc5cc(O)c(F)cc45)c(S(=O)(=O)O)c3)cc2)c(OC)c1 [dsVF2.2(OMe).F]	60%	22%	0.06	509 nm	529 nm	
O=c1cc2oc3cc(O)c(Cl)cc3c(-c3c(S(=O)(=O)O)cc(Br)cc3S(=O)(=O)O)c-2cc1Cl [ds-dichlorofluorescein, 5-bromo-2′,7′-dichlorodisulfofluorescein]						solubility at 3 days [3]: ≤ 940 µM
O=c1cc2oc3cc(O)c(Cl)cc3c(-c3ccc(Br)cc3S(=O)(=O)O)c-2cc1Cl [ms-dichlorofluorescein, 5-bromo-2′,7′-dichlorosulfofluorescein]						solubility at 3 days [3]: 410 µM (≈ 212 µg/mL)
CCN(CC)c1ccc(/C=C/c2ccc(/C=C/c3ccc(-c4c5ccc(=O)cc-5oc5cc(O)ccc45)c(S(=O)(=O)O)c3)cc2)c(OC)c1 [msVF2.2(OMe).H]	53%		0.08	508 nm	530 nm	
CCN(CC)c1ccc(/C=C/c2ccc(/C=C/c3ccc(-c4c5cc(Cl)c(=O)cc-5oc5cc(O)c(Cl)cc45)c(S(=O)(=O)O)c3)cc2)c(OC)c1 [msVF2.2(OMe).Cl]	53%		0.06	518 nm	534 nm	ΔF/F (%) voltage sensitivity (HEK293T cells [1]; listed as msVF2.2(OMe). Cl): approximately 53%
CCN(CC)c1ccc(/C=C/c2ccc(/C=C/c3cc(S(=O)(=O)O)c(-c4c5ccc(=O)cc-5oc5cc(O)ccc45)c(S(=O)(=O)O)c3)cc2)c(OC)c1 [dsVF2.2(OMe).H]	57%	9%	0.11	510 nm	530 nm	
CCN(CC)c1ccc(/C=C/c2ccc(/C=C/c3ccc(-c4c5cc(F)c(=O)cc-5oc5cc(O)c(F)cc45)c(S(=O)(=O)O)c3)cc2)c(OC)c1 [msVF2.2(OMe).F]	49%		0.06	505 nm	524 nm	
CN(C)c1ccc(/C=C/c2ccc(/C=C/c3cc(S(=O)(=O)O)c(-c4c5ccc(=O)cc-5oc5cc(O)ccc45)c(S(=O)(=O)O)c3)cc2)cc1 [dsVF2.1.H]	20%	17%	0.14	509 nm	540 nm	
